Data as given in US20240116892A1, “HETEROCYCLIC AMIDE AND UREA COMPOUNDS AS JAK2 INHIBITORS” (Ajax Therapeutics, Inc., priority 2022, published 2024).
pKd: −log10 of the molar value.

Target: JAK2 (JH1 domain-catalytic, Y1007F, Y1008F) kinase (Homo sapiens (Human), UniProt O60674, Y1007F/Y1008F)
Assay: JAK2 JH1 Domain Binding Assay
Details: qPCR readout
Protocol: JAK2 (JH1 domain-catalytic, Y1007F, Y1008F) kinase was expressed as N-terminal fusion to the DNA binding domain of NFkB in transiently transfected HEK293 cells and subsequently tagged with DNA for qPCR detection. Streptavidin-coated magnetic beads were treated with biotinylated small molecule ligands for 30 minutes at room temperature to generate affinity resins for kinase assays. The liganded beads were blocked with excess biotin and washed with blocking buffer (SeaBlock (Pierce), 1% BSA, 0.05% Tween 20, 1 mmol/L DTT) to remove unbound ligand and to reduce nonspecific phage binding. Binding reactions were assembled by combining kinases, liganded affinity beads, and test compounds in 1× binding buffer (1× PBS, 0.05% Tween 20, 0.1% BSA, 1 mmol/L DTT). Test compound was prepared as 111× stocks in 100% DMSO and directly diluted into the assay wells. All reactions were performed in polypropylene 384-well plates in a final volume of 0.02 mL. The assay plates were incubated at room temperature with shaking for 1 hour and the affinity beads were washed with wash buffer (1× PBS, 0.05% Tween 20). The beads were then re-suspended in elution buffer (1× PBS, 0.05% Tween 20, 0.5 μmol/L non-biotinylated affinity ligand) and incubated at room temperature with shaking for 30 minutes. The kinase concentration in the eluate was measured by qPCR.

Chain of JAK2 (JH1 domain-catalytic, Y1007F, Y1008F) kinase (O60674 849-1124 Y1007F/Y1008F): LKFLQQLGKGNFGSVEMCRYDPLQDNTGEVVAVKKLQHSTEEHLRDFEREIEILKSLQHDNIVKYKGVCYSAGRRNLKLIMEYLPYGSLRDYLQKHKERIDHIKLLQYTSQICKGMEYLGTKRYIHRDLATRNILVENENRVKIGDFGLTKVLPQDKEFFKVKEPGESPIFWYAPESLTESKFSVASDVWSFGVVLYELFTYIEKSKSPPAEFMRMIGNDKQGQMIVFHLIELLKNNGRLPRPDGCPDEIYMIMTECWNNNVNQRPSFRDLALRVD

Molecule	pKd
1-(1-(3-((1R,2R)-2-hydroxycyclobutoxy)-1H-pyrazolo[3,4-b]pyridin-5-yl)piperidin-4-yl)-1-methyl-3-(1-methyl-2-oxo-5-(trifluoromethyl)-1,2-dihydropyridin-3-yl)urea and 1-(1-(3-((1S,2S)-2-hydroxycyclobutoxy)-1H-pyrazolo[3,4-b]pyridin-5-yl)piperidin-4-yl)-1-methyl-3-(1-methyl-2-oxo-5-(trifluoromethyl)-1,2-dihydropyridin-3-yl)urea [Example I-184-a]	6.00 to 7.30
1-(1-(3-((1R,2R)-2-hydroxycyclobutoxy)-1H-pyrazolo[3,4-b]pyridin-5-yl)piperidin-4-yl)-1-methyl-3-(1-methyl-2-oxo-5-(trifluoromethyl)-1,2-dihydropyridin-3-yl)urea and 1-(1-(3-((1S,2S)-2-hydroxycyclobutoxy)-1H-pyrazolo[3,4-b]pyridin-5-yl)piperidin-4-yl)-1-methyl-3-(1-methyl-2-oxo-5-(trifluoromethyl)-1,2-dihydropyridin-3-yl)urea [Example I-184-b]	5.30 to 6.00
CN(C(=O)Nc1cc(C(F)(F)F)ccn1)[C@@H]1CCN(c2cnc3[nH]ncc3c2)CC1(F)F (mixture of isomers) [Example I-146-a, (R)-1-(3,3-difluoro-1-(1H-pyrazolo[3,4-b]pyridin-5-yl)piperidin-4-yl)-1-methyl-3-(4-(trifluoromethyl)pyridin-2-yl)urea and (S)-1-(3,3-difluoro-1-(1H-pyrazolo[3,4-b]pyridin-5-yl)piperidin-4-yl)-1-methyl-3-(4-(trifluoromethyl)pyridin-2-yl)urea]	> 8.00
CN(C(=O)Nc1cc(C(F)(F)F)ccn1)[C@H]1CCN(c2cnc3[nH]ncc3c2)CC1(F)F (mixture of isomers) [Example I-146-b, (R)-1-(3,3-difluoro-1-(1H-pyrazolo[3,4-b]pyridin-5-yl)piperidin-4-yl)-1-methyl-3-(4-(trifluoromethyl)pyridin-2-yl)urea and (S)-1-(3,3-difluoro-1-(1H-pyrazolo[3,4-b]pyridin-5-yl)piperidin-4-yl)-1-methyl-3-(4-(trifluoromethyl)pyridin-2-yl)urea]	> 8.00
CN(C(=O)Nc1cncc(C(F)(F)F)c1)[C@@H]1CCN(c2cnc3[nH]ncc3c2)CC1(F)F.CN(C(=O)Nc1cncc(C(F)(F)F)c1)[C@H]1CCN(c2cnc3[nH]ncc3c2)CC1(F)F (mixture of isomers) [Example I-147-a, (R)-1-(3,3-difluoro-1-(1H-pyrazolo[3,4-b]pyridin-5-yl)piperidin-4-yl)-1-methyl-3-(5-(trifluoromethyl)pyridin-3-yl)urea and (S)-1-(3,3-difluoro-1-(1H-pyrazolo[3,4-b]pyridin-5-yl)piperidin-4-yl)-1-methyl-3-(5-(trifluoromethyl)pyridin-3-yl)urea]	> 8.00
CN(C(=O)Nc1cc(C(F)(F)F)cn(C)c1=O)[C@@H]1CC=C(c2cnc3[nH]cc(N4CCOCC4)c3n2)CC1.CN(C(=O)Nc1cc(C(F)(F)F)cn(C)c1=O)[C@H]1CC=C(c2cnc3[nH]cc(N4CCOCC4)c3n2)CC1 (mixture of isomers) [Example I-165-a, (S)-1-methyl-3-(1-methyl-2-oxo-5-(trifluoromethyl)-1,2-dihydropyridin-3-yl)-1-(4-(7-morpholino-5H-pyrrolo[2,3-b]pyrazin-2-yl)cyclohex-3-en-1-yl)urea and (R)-1-methyl-3-(1-methyl-2-oxo-5-(trifluoromethyl)-1,2-dihydropyridin-3-yl)-1-(4-(7-morpholino-5H-pyrrolo[2,3-b]pyrazin-2-yl)cyclohex-3-en-1-yl)urea]	> 8.00
CN(C(=O)Nc1cc(C(F)(F)F)cn(C)c1=O)C12CC(c3cnc4[nH]nc(OC5CCOC5)c4c3)(C1)C2 (mixture of isomers) [Example I-166, (S)-1-methyl-3-(1-methyl-2-oxo-5-(trifluoromethyl)-1,2-dihydropyridin-3-yl)-1-(3-(3-((tetrahydrofuran-3-yl)oxy)-1H-pyrazolo[3,4-b]pyridin-5-yl)bicyclo[1.1.1]pentan-1-yl)urea and (R)-1-methyl-3-(1-methyl-2-oxo-5-(trifluoromethyl)-1,2-dihydropyridin-3-yl)-1-(3-(3-((tetrahydrofuran-3-yl)oxy)-1H-pyrazolo[3,4-b]pyridin-5-yl)bicyclo[1.1.1]pentan-1-yl)urea]	> 8.00
CN(C(=O)Nc1cc(C(F)(F)F)cn(C)c1=O)[C@@H]1CCN(c2cnc3[nH]ncc3c2)C[C@H]1OC(F)F.CN(C(=O)Nc1cc(C(F)(F)F)cn(C)c1=O)[C@H]1CCN(c2cnc3[nH]ncc3c2)C[C@@H]1OC(F)F (mixture of isomers) [Example I-167-a, 1-((3S,4S)-3-(difluoromethoxy)-1-(1H-pyrazolo[3,4-b]pyridin-5-yl)piperidin-4-yl)-1-methyl-3-(1-methyl-2-oxo-5-(trifluoromethyl)-1,2-dihydropyridin-3-yl)urea and 1-((3R,4R)-3-(difluoromethoxy)-1-(1H-pyrazolo[3,4-b]pyridin-5-yl)piperidin-4-yl)-1-methyl-3-(1-methyl-2-oxo-5-(trifluoromethyl)-1,2-dihydropyridin-3-yl)urea]	6.00 to 7.30
CC(=O)Nc1c[nH]c2ncc(N3CC[C@@H](N(C)C(=O)Nc4cc(C(F)(F)F)cn(C)c4=O)C(F)(F)C3)cc12 (mixture of isomers) [Example I-172-a, (R)—N-(5-(3,3-difluoro-4-(1-methyl-3-(1-methyl-2-oxo-5-(trifluoromethyl)-1,2-dihydropyridin-3-yl)ureido)piperidin-1-yl)-1H-pyrrolo[2,3-b]pyridin-3-yl)acetamide and (S)—N-(5-(3,3-difluoro-4-(1-methyl-3-(1-methyl-2-oxo-5-(trifluoromethyl)-1,2-dihydropyridin-3-yl)ureido)piperidin-1-yl)-1H-pyrrolo[2,3-b]pyridin-3-yl)acetamide]	> 8.00
CC(=O)Nc1c[nH]c2ncc(N3CC[C@H](N(C)C(=O)Nc4cc(C(F)(F)F)cn(C)c4=O)C(F)(F)C3)cc12 (mixture of isomers) [Example I-172-b, (R)—N-(5-(3,3-difluoro-4-(1-methyl-3-(1-methyl-2-oxo-5-(trifluoromethyl)-1,2-dihydropyridin-3-yl)ureido)piperidin-1-yl)-1H-pyrrolo[2,3-b]pyridin-3-yl)acetamide and (S)—N-(5-(3,3-difluoro-4-(1-methyl-3-(1-methyl-2-oxo-5-(trifluoromethyl)-1,2-dihydropyridin-3-yl)ureido)piperidin-1-yl)-1H-pyrrolo[2,3-b]pyridin-3-yl)acetamide]	> 8.00
CN(C(=O)Nc1cc(C(F)(F)F)cn(C)c1=O)[C@@H]1CCN(c2cnccn2)CC1(F)F (single isomer, unassigned) [Example I-22-a]	7.30 to 8.00
CN(C(=O)Nc1cc(C(F)(F)F)cn(C)c1=O)[C@H]1CCN(c2cnccn2)CC1(F)F (single isomer, unassigned) [Example I-22-b]	7.30 to 8.00
CN(C(=O)Nc1cc(C(F)(F)F)cn(C)c1=O)[C@@H]1CCN(c2cnc3[nH]ccc3n2)CC1(F)F (single isomer, unassigned) [Example I-27-a]	> 8.00
CN(C(=O)Nc1cc(C(F)(F)F)cn(C)c1=O)[C@H]1CCN(c2cnc3[nH]ccc3n2)CC1(F)F (single isomer, unassigned) [Example I-27-b]	> 8.00
Cc1c[nH]c2ncc(N3CCC(N(C)C(=O)Nc4cc(C(F)(F)F)cn(C)c4=O)C(F)(F)C3)nc12 (single isomer, unassigned) [Example I-33-a, (R)- or (S)-1-(3,3-difluoro-1-(7-methyl-5H-pyrrolo[2,3-b]pyrazin-2-yl)piperidin-4-yl)-1-methyl-3-(1-methyl-2-oxo-5-(trifluoromethyl)-1,2-dihydropyridin-3-yl)urea]	> 8.00
Cc1c[nH]c2ncc(N3CCC(N(C)C(=O)Nc4cc(C(F)(F)F)cn(C)c4=O)C(F)(F)C3)nc12 (single isomer, unassigned) [Example I-33-b, (S)- or (R)-1-(3,3-difluoro-1-(7-methyl-5H-pyrrolo[2,3-b]pyrazin-2-yl)piperidin-4-yl)-1-methyl-3-(1-methyl-2-oxo-5-(trifluoromethyl)-1,2-dihydropyridin-3-yl)urea]	> 8.00
CN(C(=O)Nc1cc(C(F)(F)F)cn(C)c1=O)[C@@H]1CCN(c2cnc(NC(=O)C3CC3)cn2)CC1(F)F (single isomer, unassigned) [Example I-34-a]	> 8.00
CN(C(=O)Nc1cc(C(F)(F)F)cn(C)c1=O)[C@H]1CCN(c2cnc(NC(=O)C3CC3)cn2)CC1(F)F (single isomer, unassigned) [Example I-34-b]	> 8.00
CC(=O)Nc1cnc(N2CC[C@@H](N(C)C(=O)Nc3cc(C(F)(F)F)cn(C)c3=O)C(F)(F)C2)cn1 (single isomer, unassigned) [Example I-35-a]	> 8.00
CC(=O)Nc1cnc(N2CC[C@H](N(C)C(=O)Nc3cc(C(F)(F)F)cn(C)c3=O)C(F)(F)C2)cn1 (single isomer, unassigned) [Example I-35-b]	> 8.00
Cc1n[nH]c2ncc(N3CCC(N(C)C(=O)Nc4cc(C(F)(F)F)cn(C)c4=O)C(F)(F)C3)cc12 (single isomer, unassigned) [Example I-36-a, (R)- or (S)-1-(3,3-difluoro-1-(3-methyl-1H-pyrazolo[3,4-b]pyridin-5-yl)piperidin-4-yl)-1-methyl-3-(1-methyl-2-oxo-5-(trifluoromethyl)-1,2-dihydropyridin-3-yl)urea]	> 8.00
